Reference: patent publication US20250344734A1, “UNSATURATED FATTY ACIDS AND THEIR USE TO MODIFY TASTE” (Firmenich Incorporated, priority 2022, published 2025)

Tests used:
Type in all cases: cell-based
[1] = molecular target: T1, T2R07 (TAS2R07) (Homo sapiens, UniProt Q9NYW3); test: FLIPR calcium assay, block of bitter agonist response, T2R07; conditions: unsaturated fatty acid concentration of 200 µM, cells stimulated with known bitter agonist
T1 construct: expressed in transfected cells; host or cells: cells expressing a promiscuous G protein (e.g., G16g44)
T1 sequence (Q9NYW3 1-318): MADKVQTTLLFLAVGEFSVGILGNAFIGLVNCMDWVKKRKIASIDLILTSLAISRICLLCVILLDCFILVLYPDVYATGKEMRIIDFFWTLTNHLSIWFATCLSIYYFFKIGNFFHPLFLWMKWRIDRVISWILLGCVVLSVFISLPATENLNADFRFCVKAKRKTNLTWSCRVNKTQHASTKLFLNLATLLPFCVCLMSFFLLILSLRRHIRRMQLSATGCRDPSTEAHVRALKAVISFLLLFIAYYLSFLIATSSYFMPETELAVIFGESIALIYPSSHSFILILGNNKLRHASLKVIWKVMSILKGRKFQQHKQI
Method: (§1) Cells expressing a promiscuous […] (e.g., G16g44) were transfected with vectors encoding 18 functional bitter receptor cDNAs, with one receptor per transfection. The cells were transfected directly in 384-well format high-density plates and incubated for 28 hours. Later, cells were loaded with the Ca-specific dye Fluo4-AM. After an incubation of 60 minutes, excess dye is washed off, and cells are stimulated with a known bitter agonist for each receptor and various unsaturated fatty acids. Changes in intracellular fluorescence are recorded using a FLIPR instrument. Bitter antagonists and corresponding receptors are identified based on percentage inhibition of agonist's activity on a given receptor.
(§2) The above protocol was carried out using 16 different unsaturated fatty acids. A particular T2R receptor was identified as being antagonized by a particular unsaturated fatty acid if it triggered a >25% block of agonist's cellular response at 200 μM concentration of unsaturated fatty acid. […] Table 2 indicates the sixteen (16) compounds tested by their compound number from Table 1 above. The 18 bitter taste receptors screened are the human bitter taste receptors we named. […]

[2] = molecular target: T2, T2R71 (TAS2R41) (Homo sapiens, UniProt P59536); test: FLIPR calcium assay, block of bitter agonist response, T2R71; conditions: unsaturated fatty acid concentration of 200 µM, cells stimulated with known bitter agonist
T2 construct: expressed in transfected cells; host or cells: cells expressing a promiscuous G protein (e.g., G16g44)
T2 sequence (P59536 1-307): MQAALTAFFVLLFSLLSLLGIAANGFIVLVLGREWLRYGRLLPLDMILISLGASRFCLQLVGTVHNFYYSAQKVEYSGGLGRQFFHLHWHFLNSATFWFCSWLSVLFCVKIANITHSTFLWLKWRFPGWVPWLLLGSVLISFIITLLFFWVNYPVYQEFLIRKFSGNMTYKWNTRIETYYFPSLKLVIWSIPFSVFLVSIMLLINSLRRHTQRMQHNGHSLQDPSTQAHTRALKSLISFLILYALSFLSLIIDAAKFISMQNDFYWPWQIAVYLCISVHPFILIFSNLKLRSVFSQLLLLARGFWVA
Method: as §1, §2

[3] = molecular target: T3, T2R54 (TAS2R39 (Homo sapiens, UniProt P59534)); test: FLIPR calcium assay, block of bitter agonist response, T2R54; conditions: unsaturated fatty acid concentration of 200 µM, cells stimulated with known bitter agonist
T3 construct: expressed in transfected cells; host or cells: cells expressing a promiscuous G protein (e.g., G16g44)
T3 sequence (P59534 1-338): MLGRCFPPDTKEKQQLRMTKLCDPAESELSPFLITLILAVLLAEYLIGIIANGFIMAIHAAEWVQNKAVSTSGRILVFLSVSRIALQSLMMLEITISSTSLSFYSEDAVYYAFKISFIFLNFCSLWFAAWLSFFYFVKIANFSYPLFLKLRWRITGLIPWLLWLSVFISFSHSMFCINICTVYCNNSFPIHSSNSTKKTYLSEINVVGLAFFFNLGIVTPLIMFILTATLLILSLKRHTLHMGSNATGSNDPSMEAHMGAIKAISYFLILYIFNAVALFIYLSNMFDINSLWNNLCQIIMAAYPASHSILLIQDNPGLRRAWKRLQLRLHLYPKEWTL
Method: as §1
(§3) The above protocol was carried out using 16 different unsaturated fatty acids. A particular T2R receptor was identified as being antagonized by a particular unsaturated fatty acid if it triggered a >25% block of agonist's cellular response at 200 μM concentration of unsaturated fatty acid. […] Table 2 indicates the sixteen (16) compounds tested by their compound number from Table 1 above. The 18 bitter taste receptors screened are the human bitter taste receptors we named. T2R01 (TAS2R01), T2R03 (TAS2R03), T2R04 (TAS2R04), T2R07 (TAS2R07), T2R08 (TAS2R08), T2R09 (TAS2R09), T2R10 (TAS2R10), T2R13 (TAS2R13), T2R14 (TAS2R14), T2R16 (TAS2R16), T2R54 (TAS2R39, T2R61 (TAS2R43), T2R63 (TA2R20), T2R64 (TAS2R31), T2R65 (TAS2R19), T2R67 (TAS2R50), T2R71 (TAS2R41), and T2R75 (TAS2R46). The corresponding IUPHAR nomenclature for each receptor is given in parenthesis. In Table 2, these receptors are identified by the last two digits. For example, T2R01 is indicated as 01. Table 2 reports the percentage block of cellular response over baseline at an unsaturated fatty acid concentration of 200 µM.

[4] = molecular target: T4, T2R10 (TAS2R10) (Homo sapiens, UniProt Q9NYW0); test: FLIPR calcium assay, block of bitter agonist response, T2R10; conditions: unsaturated fatty acid concentration of 200 µM, cells stimulated with known bitter agonist, read-out: percentage block of cellular response over baseline, 10
T4 construct: expressed in transfected cells; host or cells: cells expressing a promiscuous G protein (e.g., G16g44)
T4 sequence (Q9NYW0 1-307): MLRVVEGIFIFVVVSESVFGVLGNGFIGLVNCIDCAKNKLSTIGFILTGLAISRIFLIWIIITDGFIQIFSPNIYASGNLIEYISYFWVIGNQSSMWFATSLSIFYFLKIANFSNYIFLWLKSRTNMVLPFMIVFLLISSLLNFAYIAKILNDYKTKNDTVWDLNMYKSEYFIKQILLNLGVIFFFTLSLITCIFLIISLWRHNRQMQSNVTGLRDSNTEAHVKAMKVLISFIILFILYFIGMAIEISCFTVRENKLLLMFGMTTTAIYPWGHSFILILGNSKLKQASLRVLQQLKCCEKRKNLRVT
Method: as §1, §3

[5] = molecular target: T5, T2R01 (TAS2R01) (Homo sapiens, UniProt Q9NYW7); test: FLIPR calcium assay, block of bitter agonist response, T2R01; conditions: unsaturated fatty acid concentration of 200 µM, cells stimulated with known bitter agonist, read-out: percentage block of cellular response over baseline, 01
T5 construct: expressed in transfected cells; host or cells: cells expressing a promiscuous G protein (e.g., G16g44)
T5 sequence (Q9NYW7 1-299): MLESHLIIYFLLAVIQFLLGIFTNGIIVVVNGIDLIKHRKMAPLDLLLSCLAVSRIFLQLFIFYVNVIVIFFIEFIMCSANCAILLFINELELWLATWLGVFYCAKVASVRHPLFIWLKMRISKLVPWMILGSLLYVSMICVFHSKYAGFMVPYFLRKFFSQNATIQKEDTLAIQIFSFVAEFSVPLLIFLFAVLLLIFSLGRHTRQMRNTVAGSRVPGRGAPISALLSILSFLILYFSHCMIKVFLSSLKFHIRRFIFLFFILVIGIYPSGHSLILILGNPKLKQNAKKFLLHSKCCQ
Method: as §1, §3

percentage block of cellular response over baseline, 07 [1]: >90% | percentage block of cellular response over baseline, 71 [2]: 30% | percentage block of cellular response over baseline, 54 [3]: 90% | inhibition at 200 µM [4]: > 65% | inhibition at 200 µM [5]: 40%
SMILES: CC(C)=CCC/C(C)=C/C(=O)O [Compound 129]
